One test deals with IDH1 R132C (Homo sapiens (Human), UniProt O75874, R132C). The test can be described thus: In vitro NADPH depletion assay for IDH1m R132C inhibitors. It counts as biochemical. As to conditions: enzyme, read-out: IDH R132C IC50. The method, then:
A test compound is prepared as 10 mM stock in DMSO and diluted to 50× final concentration in DMSO, for a 50 μl reaction mixture. IDH enzyme activity converting alpha-ketoglutarate to 2-hydroxyglutaric acid is measured using a NADPH depletion assay. In the assay the remaining cofactor is measured at the end of the reaction with the addition of a catalytic excess of diaphorase and resazurin, to generate a fluorescent signal in proportion to the amount of NADPH remaining. […] The reaction is started with the addition of 10 μl of Substrate Mix ([…], 5 mM alpha-ketoglutarate, in Assay Buffer) and the mixture is incubated for 90 minutes at room temperature.
The concentration of NADPH and alpha-ketoglutarate in the Substrate Buffer is 20 μM and 1 mM, respectively.

The subject of the next test is HT1080 cells. The test can be described thus: Cellular assay, inhibition of 2-HG production in HT1080 cells. Format: cell-based. The method, then:
Cells (HT1080 or U87MG) are grown in T125 flasks in DMEM containing 10% FBS, 1× penicillin/streptomycin and 500 ug/mL G418 (present in U87MG cells only). They are harvested by trypsin and seeded into 96 well white bottom plates at a density of 5000 cell/well in 100 ul/well in DMEM with 10% FBS. […] Cells are incubated overnight at 37° C. in 5% CO2. The next day test compounds are made up at 2× the final concentration and 100 ul are added to each cell well. The final concentration of DMSO is 0.2% and the DMSO control wells are plated in row G. The plates are then placed in the incubator for 48 hours. […] The cell plate is placed back in the incubator for another 24 hours. At 72 hours post compound addition, 10 mL/plate of Promega Cell Titer Glo reagent is thawed and mixed. The cell plate is removed from the incubator and allowed to equilibrate to room temperature. Then 100 ul of Promega Cell Titer Glo reagent is added to each well of media. The cell plate is then placed on an orbital shaker for 10 minutes and then allowed to sit at room temperature for 20 minutes. The plate is then read for luminescence with an integration time of 500 ms.

In another test the test system is U87MG cells. Description: Cellular assay, inhibition of 2-HG production in U87MG cells. Format: cell-based. The gist of the method: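 HT1080 or U87MG cells (U87MG kept with 500 ug/mL G418) seeded at 5000 cells/well and treated with compound at 0.2% final DMSO. Incubated 48 h at 37 °C. 2-HG inhibition determined by LC-MS. Viability read by CellTiter-Glo luminescence at 72 h post-dose.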

Setting [1] is: inhibition of 2-HG production, HT1080 cells, 48 hours.
[2] abbreviates: inhibition of 2-HG production, U87MG cells, 48 hours.

A value given as a limit tells only on which side of the number the result lay.

Sequence of IDH1 R132C (O75874 whole entry R132C): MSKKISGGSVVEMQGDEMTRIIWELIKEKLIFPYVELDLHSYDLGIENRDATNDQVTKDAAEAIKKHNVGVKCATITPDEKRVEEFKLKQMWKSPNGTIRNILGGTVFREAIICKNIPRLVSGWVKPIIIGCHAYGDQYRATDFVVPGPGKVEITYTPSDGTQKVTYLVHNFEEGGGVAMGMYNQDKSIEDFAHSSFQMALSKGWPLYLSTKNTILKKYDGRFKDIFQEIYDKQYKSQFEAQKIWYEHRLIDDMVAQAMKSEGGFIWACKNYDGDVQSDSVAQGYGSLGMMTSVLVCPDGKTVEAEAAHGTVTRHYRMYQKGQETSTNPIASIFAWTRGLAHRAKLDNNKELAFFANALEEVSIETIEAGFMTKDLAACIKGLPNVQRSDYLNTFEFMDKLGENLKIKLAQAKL

Turning to `O=C(NC1CC(F)(F)C1)[C@H](c1ccccc1Cl)N(C(=O)[C@@H]1CCC(=O)N1c1ccncn1)c1cccc(F)c1` [Compound 22], the IC50 at IDH1 R132C is 0.1 to 0.5 µM.
Regarding `CS(=O)(=O)c1cccc(N(C(=O)[C@@H]2CCC(=O)N2c2nccc(C#N)n2)C(C(=O)NC2CC(F)(F)C2)c2ccccc2Cl)c1` (mixture of isomers) [Compound 102, (2S)—N-(1-(2-Chlorophenyl)-2-((3,3-difluorocyclobutyl)amino)-2-oxoethyl)-1-(4-cyanopyrimidin-2-yl)-N-(3-(methylsulfonyl)phenyl)-5-oxopyrrolidine-2-carboxamide], the IC50 with HT1080 cells (Homo sapiens, HT-1080, 48 h) was less than 0.1 µM; with U87MG cells (Homo sapiens, U-87 MG, 48 h), 0.1 to 0.5 µM.
For `O=C(NC1CC(F)C1)[C@H](c1ccccc1Cl)N(C(=O)[C@@H]1CCC(=O)N1c1ncccn1)c1cccc(F)c1` (stereo partly drawn) [Compound 49] the same measures were 0.1 to 0.5 µM and 0.1 to 0.5 µM.
As for “(S)-1-(4-Cyanopyridin-2-yl)-N—((S)-2-(3,3-difluorocyclobutylamino)-1-(2-fluorophenyl)-2-oxoethyl)-N-(3,5-difluorophenyl)-5-oxopyrrolidine-2-carboxamide [Compound 208]”, the IC50 in the test with HT1080 cells (setting [1]) and in the test on U87MG cells (setting [2]) was less than 0.1 µM each time.
Regarding `O=C(NC1CC(F)(F)C1)[C@H](c1ccccc1Cl)N(C(=O)[C@@H]1CCC(=O)N1c1ccc(Cl)cn1)c1cccc(F)c1` [Compound 48], the IC50 with HT1080 cells (Homo sapiens, HT-1080, 48 h) was 0.1 to 0.5 µM; in the test on U87MG cells (Homo sapiens, U-87 MG, 48 h), 0.1 to 0.5 µM.
With `O=C(NC1CC(F)(F)C1)[C@H](c1ccccc1Cl)N(C(=O)[C@@H]1CCC(=O)N1c1nccc2ccccc12)c1cccc(F)c1` [Compound 16], the concentration for half-maximal inhibition (IC50) in the test on HT1080 cells (Homo sapiens, HT-1080, 48 h) was in the range of 0.1 to 0.5 µM; with U87MG cells (Homo sapiens, U-87 MG, 48 h) it was 0.5 to 1 µM.
With `N#Cc1ccnc(N2C(=O)CC[C@H]2C(=O)N(c2cccc(-c3cn[nH]c3)c2)[C@H](C(=O)NC2CC(F)(F)C2)c2ccccc2Cl)c1` (single isomer, unassigned) [Compound 200], the IC50 in the test with HT1080 cells (Homo sapiens, HT-1080, 48 h) is less than 0.1 µM; with U87MG cells (Homo sapiens, U-87 MG, 48 h), less than 0.1 µM.
Take `Cc1cccnc1N1C(=O)CC[C@H]1C(=O)N(c1cccc(F)c1)[C@H](C(=O)NC1CC(F)(F)C1)c1ccccc1Cl` [Compound 15]: the IC50 with HT1080 cells (Homo sapiens, HT-1080, 48 h) is 0.1 to 0.5 µM; in the test with U87MG cells (Homo sapiens, U-87 MG, 48 h), 0.1 to 0.5 µM.
For “(S)-tert-butyl 3-(((S)-1-(2-chlorophenyl)-2-((3,3-difluorocyclobutyl)amino)-2-oxoethyl)(3,5-difluorophenyl)carbamoyl)-5-oxopiperazine-1-carboxylate [Compound 97]”, the IC50 in the test on HT1080 cells (setting [1]) and in the test with U87MG cells (setting [2]) was less than 0.1 µM in each case.
`COc1cccnc1N1C(=O)CC[C@H]1C(=O)N(c1cccc(F)c1)[C@H](C(=O)NC1CC(F)(F)C1)c1ccccc1Cl` [Compound 17]: the IC50 with HT1080 cells (Homo sapiens, HT-1080, 48 h) fell in the range of 0.5 to 1 µM; in the test with U87MG cells (Homo sapiens, U-87 MG, 48 h), 1 to 2 µM.
Taken in the same sequence, the figures for `N#Cc1ccnc(N2C(=O)CC[C@H]2C(=O)N(c2cccc(F)c2)[C@H](C(=O)NC2CC(F)(F)C2)c2c(Cl)cccc2Cl)c1` (single isomer, unassigned) [Compound 63] were less than 0.1 µM and less than 0.1 µM.
For `N#Cc1cncc(N(C(=O)[C@@H]2CCC(=O)N2c2cc(C#N)ccn2)[C@H](C(=O)NC2CC(F)(F)C2)c2ccccc2)c1` [Compound 212] the same measures were less than 0.1 µM and less than 0.1 µM.
Taken in the same sequence, the figures for `O=C(NC1CC(F)(F)C1)[C@H](c1ccccc1Cl)N(C(=O)[C@@H]1COCC(=O)N1c1ncccn1)c1cccc(F)c1` [Compound 45] were 0.1 to 0.5 µM and 0.1 to 0.5 µM.
Regarding “(2S)—N-(1-(2-Chlorophenyl)-2-((3,3-difluorocyclobutyl)amino)-2-oxoethyl)-1-(4-cyanopyridin-2-yl)-N-(3-fluoro-5-(methylsulfonyl)phenyl)-5-oxopyrrolidine-2-carboxamide [Compound 110]”, the IC50 in the test with HT1080 cells (setting [1]) and in the test with U87MG cells (setting [2]) was less than 0.1 µM each time.

Values taken from patent publication US10640534B2 (Agios Pharmaceuticals, Inc., priority 2012, dated 2020).
